According to patent US8153795B2, “Substituted 1-oxa-3,8-diazaspiro[4.5]-decan-2-one-compounds and the use thereof for producing drugs” (Gruenenthal GmbH, priority 2005, dated 2012):

Columns and labels:
[1] = target: T1, 5-HT transporter (Rattus norvegicus, UniProt P31652); assay: 5-HT uptake inhibition in rat brain synaptosomes (medulla and pons), [3H]-5-HT; assay type: biochemical
T1 construct: from tissue; host or cells: rat brain synaptosomes (P2 fraction) from medulla and pons
Procedure, shortened: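 Freshly isolated P2 synaptosomes taken from rat hypothalamus (NA) or medulla/pons (5-HT) were incubated at room temperature under O2 with [3H]-NA for 7.5 min or [3H]-5-HT for 5 min. Uptake was measured as filter-retained radioactivity by scintillation counting.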

[2] = target: T2, human μ opioid receptor (Homo sapiens, UniProt P35372); assay: affinity for the human μ opioid receptor, displacement of [3H]-naloxone, CHO-K1 membrane preparation; details: percentage inhibition of specific binding of [3H]-naloxone
T2 construct: purchased NEN, Zaventem, Belgium RB-HOM; host or cells: CHO-K1 cells (recombinant expression, membrane preparation)
T2 sequence (P35372 whole entry): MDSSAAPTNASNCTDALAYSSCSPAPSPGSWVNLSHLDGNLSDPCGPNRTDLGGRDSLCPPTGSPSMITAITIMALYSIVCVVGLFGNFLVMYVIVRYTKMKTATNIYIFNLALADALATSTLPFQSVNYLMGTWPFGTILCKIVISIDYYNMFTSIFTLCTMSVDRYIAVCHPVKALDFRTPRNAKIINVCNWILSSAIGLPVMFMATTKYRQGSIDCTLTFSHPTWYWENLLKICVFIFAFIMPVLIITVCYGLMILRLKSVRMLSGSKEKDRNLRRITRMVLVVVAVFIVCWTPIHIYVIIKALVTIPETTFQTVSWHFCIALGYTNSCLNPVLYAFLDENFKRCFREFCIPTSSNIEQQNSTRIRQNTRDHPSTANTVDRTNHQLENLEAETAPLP
Experimental: Receptor affinity for the human p opioid receptor is determined in a homogeneous batch in microtitre plates. To this end, dilution series of the particular substituted 1-oxa-3,8-diazaspiro[4.5]-decan-2-one compounds to be tested were incubated at room temperature for 90 minutes in a total volume of 250 μl with a receptor membrane preparation (15-40 μg of protein per 250 μl of incubation batch) of CHO-K1 cells, which express the human p opioid receptor (RB-HOM receptor membrane preparation from NEN, Zaventem, Belgium) in the presence of 1 nmol/l of the radioactive ligand [^3H]-naloxone (NET719, from NEN, Zaventem, Belgium) and of 1 mg of WGA-SPA beads (wheat germ agglutinin SPA beads from Amersham/Pharmacia, Freiburg, Germany). The incubation buffer used is 50 mmol/l tris-HCl supplemented with 0.05 wt. % of sodium azide and 0.06 wt. % of bovine serum albumin. Nonspecific binding is determined by additionally adding 25 μmol/l of naloxone. Once the ninety minute incubation time had elapsed, the microtitre plates were centrifuged off for 20 minutes at 1000 g and the radioactivity measured in a β counter (Microbeta-Trilux, from PerkinElmer Wallac, Freiburg, Germany). The percentage displacement of the radioactive ligand from its binding to the human p opioid receptor is determined at a concentration of the substances to be tested of 1 μmol/l and stated as percentage inhibition of specific binding.

[3] = target: T3, NA transporter (Rattus norvegicus, UniProt Q63380); assay: noradrenalin uptake inhibition in rat brain synaptosomes (hypothalamus), [3H]-NA; assay type: biochemical
T3 construct: from tissue; host or cells: rat brain synaptosomes (P2 fraction) from hypothalamus
T3 sequence (Q63380 1-617): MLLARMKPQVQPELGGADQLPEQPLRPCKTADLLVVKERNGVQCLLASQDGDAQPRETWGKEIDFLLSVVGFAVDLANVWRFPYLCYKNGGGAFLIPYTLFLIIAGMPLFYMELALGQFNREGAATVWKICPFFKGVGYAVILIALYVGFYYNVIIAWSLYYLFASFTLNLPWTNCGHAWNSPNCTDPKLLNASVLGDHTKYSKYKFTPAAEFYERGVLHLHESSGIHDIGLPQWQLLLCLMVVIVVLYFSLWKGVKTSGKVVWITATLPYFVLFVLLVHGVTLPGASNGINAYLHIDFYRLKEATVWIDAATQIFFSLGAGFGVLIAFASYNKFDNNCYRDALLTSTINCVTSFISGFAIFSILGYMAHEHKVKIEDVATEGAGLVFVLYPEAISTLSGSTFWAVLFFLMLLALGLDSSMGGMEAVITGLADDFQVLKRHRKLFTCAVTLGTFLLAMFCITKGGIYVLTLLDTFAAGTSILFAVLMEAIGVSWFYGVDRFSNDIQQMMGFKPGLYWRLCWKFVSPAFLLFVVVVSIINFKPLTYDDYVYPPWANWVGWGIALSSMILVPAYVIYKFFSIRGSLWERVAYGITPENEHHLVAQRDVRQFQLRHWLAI
Source text: a) Method for Determining Noradrenalin and 5-HT Uptake Inhibition:
Synaptosomes from rat brain regions are freshly isolated for in vitro studies, as described in the publication “The isolation of nerve endings from brain” by E. G. Gray and V. P. Whittaker, J. Anatomy 96, pages 79-88, 1962. The corresponding literature description is hereby introduced as a reference and is deemed to be part of the disclosure.
The tissue (hypothalamus for the determination of noradrenalin uptake inhibition and medulla and pons for the determination of 5-HT uptake inhibition) is homogenised in ice-cooled 0.32 M sucrose (100 mg of tissue/1 mL) in a glass homogeniser with Teflon pestle using five complete up and down strokes at 840 revolutions/minute.
The homogenate is centrifuged at 4° C. for 10 minutes at 1000 g. After subsequent centrifugation at 17000 g for 55 minutes, the synaptosomes (P2 fraction) are obtained, which are resuspended in 0.32 M […] (0.5 mL/100 mg of original weight).
The particular uptake is measured in a 96-well microtitre plate. The volume is 250 μl and the incubation proceeds at room temperature (approx. 20-25° C.) under an O2 atmosphere.
The incubation time is 7.5 minutes for [^3H]-NA and 5 minutes for [^3H]-5-HT. The 96 samples are then filtered through a Unifilter GF/B® microtitre plate (Packard) and washed with 200 mL of incubated buffer using a “Brabdel MPXRI-96T Cell-Harvester”. The Unifilter GF/B plate is dried for 1 hour at 55° C. The plate is then sealed with a Back Seal® (Packard) and 35 μl of scintillation fluid are added per well (Ultima Gold®, Packard). After sealing with a top Seal® (Packard) and establishing an equilibrium (around 5 hours), radioactivity is determined in a “Trilux 1450 Microbeta” (Wallac).
The quantity of protein used in the above determination corresponds to the values known from the literature, as for example described in “Protein measurement with the folin phenol reagent”, Lowry et al., J. Biol. Chem., 193, 265-275, 1951.
A detailed description of the method may additionally be found in the literature, for example in M. Ch. Frink, H.-H. Hennies, W. Engelberger, M. Haurand and B. Wilffert (1996) Arzneim.-Forsch./Drug Res. 46 (III), 11, 1029-1036.

T1 sequence (P31652 whole entry): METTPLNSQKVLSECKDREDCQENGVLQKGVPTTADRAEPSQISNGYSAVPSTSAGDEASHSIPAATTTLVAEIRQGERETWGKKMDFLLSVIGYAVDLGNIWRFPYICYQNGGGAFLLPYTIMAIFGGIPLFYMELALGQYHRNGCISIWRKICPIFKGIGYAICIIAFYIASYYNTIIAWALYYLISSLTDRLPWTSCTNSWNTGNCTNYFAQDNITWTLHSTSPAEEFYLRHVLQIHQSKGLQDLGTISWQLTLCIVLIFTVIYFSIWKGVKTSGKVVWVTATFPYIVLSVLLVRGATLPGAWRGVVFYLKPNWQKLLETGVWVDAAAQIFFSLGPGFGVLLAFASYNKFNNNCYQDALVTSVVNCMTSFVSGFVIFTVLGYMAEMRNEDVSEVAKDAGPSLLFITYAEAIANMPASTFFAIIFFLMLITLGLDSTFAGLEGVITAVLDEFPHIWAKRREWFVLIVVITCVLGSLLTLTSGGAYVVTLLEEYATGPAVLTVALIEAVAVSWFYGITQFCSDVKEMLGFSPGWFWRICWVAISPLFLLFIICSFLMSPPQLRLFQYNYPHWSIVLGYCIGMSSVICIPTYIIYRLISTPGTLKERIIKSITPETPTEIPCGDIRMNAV

Compound `CC(C)(CC(=O)O)C(=O)N1CCC2(CC1)CN(Cc1ccc(F)c(F)c1)C(=O)O2` [Example 65, 4-[3-(3,4-difluorobenzyl)-2-oxo-1-oxa-3,8-diazaspiro[4.5]dec-8-yl]-3,3-dimethyl-4-oxobutanoic acid] has an inhibition at 10 µM [1] of 55% and an inhibition at 1 µM [2] of 56%.
For `CC(CC(=O)O)CC(=O)N1CCC2(CC1)CN(Cc1ccccc1F)C(=O)O2` (centres unmarked) [Example 67, 5-[3-(2-fluorobenzyl)-2-oxo-1-oxa-3,8-diazaspiro[4.5]dec-8-yl]-3-methyl-5-oxopentanoic acid], the inhibition at 1 µM [2] was 41%.
Compound `Cc1ccc(CN2CC3(CCN(C(=O)CC(C)(C)CC(=O)O)CC3)OC2=O)cc1` [Example 68, 3,3-dimethyl-5-[3-(4-methylbenzyl)-2-oxo-1-oxa-3,8-diazaspiro[4.5]dec-8-yl]-5-oxopentanoic acid] has an inhibition at 1 µM [2] of 46%.
`CC(CC(=O)O)CC(=O)N1CCC2(CC1)CN(Cc1ccc(F)c(F)c1)C(=O)O2` (centres unmarked) [Example 69, 5-[3-(3,4-difluorobenzyl)-2-oxo-1-oxa-3,8-diazaspiro[4.5]dec-8-yl]-3-methyl-5-oxopentanoic acid] showed an inhibition at 1 µM [2] of 50%.
`O=C(O)COCC(=O)N1CCC2(CC1)CN(Cc1ccc(C(F)(F)F)cc1)C(=O)O2` [Example 70, {2-oxo-2-[2-oxo-3-(4-trifluoromethylbenzyl)-1-oxa-3,8-diazaspiro[4.5]dec-8-yl]ethoxy}acetic acid] gave an inhibition at 1 µM [2] of 42%.
`CCOc1ccc(C(=O)N2CCC3(CC2)CN(Cc2ccc(C)cc2)C(=O)O3)cc1` [Example 92, 8-(4-ethoxybenzoyl)-3-(4-methylbenzyl)-1-oxa-3,8-diazaspiro[4.5]decan-2-one] was tested, and the inhibition at 10 µM [1] was 67%, the inhibition at 10 µM [3] was 73% and the inhibition at 1 µM [2] was 70%.
In the case of `COC(=O)CC(=O)N1CCC2(CC1)CN(Cc1ccc(C#N)cc1)C(=O)O2` [Example 93, 3-[3-(4-cyanobenzyl)-2-oxo-1-oxa-3,8-diazaspiro[4.5]dec-8-yl]-3-oxopropionic acid methyl ester], the inhibition at 1 µM [2] is reported as 65%.
For `N#Cc1ccccc1CN1CC2(CCN(C(=O)c3ccc(F)cc3F)CC2)OC1=O` [Example 94, 2-[8-(2,4-difluorobenzoyl)-2-oxo-1-oxa-3,8-diazaspiro[4.5]dec-3-ylmethyl]benzonitrile], the inhibition at 1 µM [2] was 62%.
`Cc1cc(C)cc(CN2CC3(CCN(C(=O)c4cccc(N(C)C)c4)CC3)OC2=O)c1` [Example 95, 8-(3-dimethylaminobenzoyl)-3-(3,5-dimethylbenzyl)-1-oxa-3,8-diazaspiro[4.5]decan-2-one] gave an inhibition at 1 µM [2] of 75%.
`CC(=O)Nc1ccc(C(=O)N2CCC3(CC2)CN(Cc2ccc(F)c(F)c2)C(=O)O3)cc1` [Example 96, N-{4-[3-(3,4-difluorobenzyl)-2-oxo-1-oxa-3,8-diazaspiro[4.5]decane-8-carbonyl]phenyl}acetamide] gave an inhibition at 1 µM [2] of 78%.
`O=C1OC2(CCN(C(=O)c3ccc(Br)cc3)CC2)CN1Cc1ccc(F)cc1` [Example 97, 8-(4-bromobenzoyl)-3-(4-fluorobenzyl)-1-oxa-3,8-diazaspiro[4.5]decan-2-one] gave an inhibition at 1 µM [2] of 67%.
`N#Cc1ccc(CN2CC3(CCN(C(=O)C45CC6CC(CC(C6)C4)C5)CC3)OC2=O)cc1` [Example 98, 4-[8-(adamantane-1-carbonyl)-2-oxo-1-oxa-3,8-diazaspiro[4.5]dec-3-ylmethyl]benzonitrile] gave an inhibition at 1 µM [2] of 75%.
Work on `O=C1OC2(CCN(C(=O)c3ccc(Cl)cc3)CC2)CN1Cc1cccc(Br)c1` [Example 100, 3-(3-bromobenzyl)-8-(4-chlorobenzoyl)-1-oxa-3,8-diazaspiro[4.5]decan-2-one] yielded an inhibition at 1 µM [2] of 64%.
Work on `O=C1OC2(CCN(S(=O)(=O)Cc3cccc(Cl)c3)CC2)CN1Cc1ccccc1-c1ccccc1` [Example 149, 3-biphenyl-2-ylmethyl-8-(3-chlorobenzylsulfonyl)-1-oxa-3,8-diazaspiro[4.5]decan-2-one] yielded an inhibition at 1 µM [2] of 61%.
